Experimental data published in ChEMBL document CHEMBL4689842, “EUbOPEN Chemogenomics Library wave 1” (2021).

What was measured:
Assay type in all cases: toxicity, cell-based
U2OS = assay: Incucyte cell viability with U2OS; conditions: human, 10 µM, compound concentration 10 uM
Fibroblast = assay: Incucyte cell viability with human fibroblast; conditions: 10 µM, compound concentration 10 uM
HEK-293T = assay: Incucyte cell viability with HEK293T; conditions: human, 10 µM, compound concentration 10 uM
[1] = 0 h, replicate number 1, timepoint 0 hours
[2] = 0 h, replicate number 2, timepoint 0 hours
[3] = 6 h, replicate number 1, timepoint 6 hours
[4] = 12 h, replicate number 1, timepoint 12 hours
[5] = 12 h, replicate number 2, timepoint 12 hours
[6] = 18 h, replicate number 1, timepoint 18 hours
[7] = 24 h, replicate number 1, timepoint 24 hours
[8] = 6 h, replicate number 2, timepoint 6 hours
[9] = 18 h, replicate number 2, timepoint 18 hours
[10] = 24 h, replicate number 2, timepoint 24 hours
Further: filed as whole numbers so only -1 and 0 and 1 occur.

SMILES: COc1ccc(Cn2ccc3ccc(C(=O)NO)cc32)cc1
- Growth Rate (U2OS; [1]): 0
- Growth Rate (U2OS; [2]): 1
- Growth Rate (U2OS; [3]): 0
- Growth Rate (U2OS; [4]): 1
- Growth Rate (U2OS; [5]): 0
- Growth Rate (U2OS; [6]): 1
- Growth Rate (U2OS; [7]): 0
- Growth Rate (Fibroblast; [1]): 0
- Growth Rate (Fibroblast; [8]): 1
- Growth Rate (Fibroblast; [5]): 1
- Growth Rate (Fibroblast; [6]): 1
- Growth Rate (Fibroblast; [9]): 0
- Growth Rate (Fibroblast; [7]): 1
- Growth Rate (HEK-293T; [1]): 0
- Growth Rate (HEK-293T; [2]): 1

SMILES: CCC(=O)Nc1cccc(Oc2nc(Nc3ccc(N4CCN(C)CC4)cc3OC)ncc2Cl)c1
- Growth Rate (U2OS; [1]): 0
- Growth Rate (U2OS; [3]): 0
- Growth Rate (U2OS; [8]): 1
- Growth Rate (U2OS; [4]): 0
- Growth Rate (U2OS; [6]): 0
- Growth Rate (U2OS; [9]): 1
- Growth Rate (U2OS; [7]): 0
- Growth Rate (Fibroblast; [4]): 0
- Growth Rate (Fibroblast; [6]): 0
- Growth Rate (Fibroblast; [7]): 0
- Growth Rate (HEK-293T; [3]): 0
- Growth Rate (HEK-293T; [4]): 0
- Growth Rate (HEK-293T; [6]): 0
- Growth Rate (HEK-293T; [7]): 0

SMILES: Cc1cccc([C@H](C)c2c[nH]cn2)c1C.Cl [DEXMEDETOMIDINE HYDROCHLORIDE]
- Growth Rate (U2OS; [1]): 0
- Growth Rate (U2OS; [8]): 0
- Growth Rate (U2OS; [4]): 1
- Growth Rate (U2OS; [6]): 0
- Growth Rate (U2OS; [9]): 1
- Growth Rate (U2OS; [7]): 1
- Growth Rate (Fibroblast; [1]): 0
- Growth Rate (Fibroblast; [5]): 1
- Growth Rate (Fibroblast; [9]): 1
- Growth Rate (Fibroblast; [7]): 1
- Growth Rate (HEK-293T; [1]): 0
- Growth Rate (HEK-293T; [3]): 0
- Growth Rate (HEK-293T; [4]): 0
- Growth Rate (HEK-293T; [6]): 0
- Growth Rate (HEK-293T; [7]): 0

SMILES: C=C1/C(=C\C=C2/CCC[C@]3(C)[C@@H]([C@H](C)/C=C/C=C/C(O)(CC)CC)CC[C@@H]23)C[C@@H](O)C[C@@H]1O [SEOCALCITOL]
- Growth Rate (U2OS; [2]): 1
- Growth Rate (U2OS; [8]): 0
- Growth Rate (U2OS; [4]): 1
- Growth Rate (U2OS; [6]): 1
- Growth Rate (U2OS; [9]): 0
- Growth Rate (U2OS; [7]): 1
- Growth Rate (U2OS; [10]): 0
- Growth Rate (Fibroblast; [1]): 0
- Growth Rate (Fibroblast; [8]): 0
- Growth Rate (Fibroblast; [5]): 0
- Growth Rate (Fibroblast; [9]): 1
- Growth Rate (Fibroblast; [7]): 1
- Growth Rate (HEK-293T; [1]): 0
- Growth Rate (HEK-293T; [3]): 1
- Growth Rate (HEK-293T; [8]): 0
- Growth Rate (HEK-293T; [4]): 0
- Growth Rate (HEK-293T; [6]): 0
- Growth Rate (HEK-293T; [7]): 0

SMILES: Br.Br.N=C(N)SCCc1c[nH]cn1
- Growth Rate (U2OS; [1]): 0
- Growth Rate (U2OS; [3]): 0
- Growth Rate (U2OS; [4]): 1
- Growth Rate (U2OS; [5]): 0
- Growth Rate (U2OS; [6]): 0
- Growth Rate (U2OS; [9]): 1
- Growth Rate (U2OS; [7]): 0
- Growth Rate (Fibroblast; [1]): 0
- Growth Rate (Fibroblast; [3]): 0
- Growth Rate (Fibroblast; [4]): 0
- Growth Rate (Fibroblast; [6]): 1
- Growth Rate (Fibroblast; [9]): 0
- Growth Rate (Fibroblast; [7]): 1
- Growth Rate (Fibroblast; [10]): 0
- Growth Rate (HEK-293T; [1]): 1
- Growth Rate (HEK-293T; [2]): 0
- Growth Rate (HEK-293T; [3]): 1
- Growth Rate (HEK-293T; [4]): 1
- Growth Rate (HEK-293T; [6]): 1
- Growth Rate (HEK-293T; [9]): 0
- Growth Rate (HEK-293T; [7]): 1
- Growth Rate (HEK-293T; [10]): 0

SMILES: CC[C@@H]1[C@H](F)C(=O)N[C@@H]1COc1nccc2cc(C(N)=O)c(OC)cc12 [ZIMLOVISERTIB]
- Growth Rate (U2OS; [1]): 0
- Growth Rate (U2OS; [3]): 0
- Growth Rate (U2OS; [8]): 1
- Growth Rate (U2OS; [4]): 0
- Growth Rate (U2OS; [6]): 0
- Growth Rate (U2OS; [7]): 0
- Growth Rate (Fibroblast; [2]): 0
- Growth Rate (Fibroblast; [3]): 0
- Growth Rate (Fibroblast; [4]): 0
- Growth Rate (Fibroblast; [6]): 0
- Growth Rate (Fibroblast; [7]): 0
- Growth Rate (HEK-293T; [1]): 0
- Growth Rate (HEK-293T; [5]): 1
- Growth Rate (HEK-293T; [10]): 1

SMILES: O=C(/C=C/N1C[C@H]2C[C@@H]1CN2c1ccccn1)c1ccccc1O
- Growth Rate (U2OS; [1]): 0
- Growth Rate (U2OS; [3]): 0
- Growth Rate (U2OS; [4]): 1
- Growth Rate (U2OS; [5]): 0
- Growth Rate (U2OS; [6]): 0
- Growth Rate (U2OS; [7]): 0
- Growth Rate (Fibroblast; [2]): 0
- Growth Rate (Fibroblast; [3]): 1
- Growth Rate (Fibroblast; [4]): 1
- Growth Rate (Fibroblast; [6]): 1
- Growth Rate (Fibroblast; [7]): 1
- Growth Rate (HEK-293T; [1]): 0
- Growth Rate (HEK-293T; [2]): 1

SMILES: O=C(NCc1ccccc1)c1ccc(S(=O)(=O)NCc2ccccc2)cc1
- Growth Rate (U2OS; [2]): 1
- Growth Rate (U2OS; [3]): 0
- Growth Rate (U2OS; [4]): 1
- Growth Rate (U2OS; [6]): 0
- Growth Rate (U2OS; [7]): 1
- Growth Rate (U2OS; [10]): 0
- Growth Rate (Fibroblast; [1]): 0
- Growth Rate (Fibroblast; [3]): 0
- Growth Rate (Fibroblast; [8]): 1
- Growth Rate (Fibroblast; [4]): 0
- Growth Rate (Fibroblast; [5]): 1
- Growth Rate (Fibroblast; [6]): 1
- Growth Rate (Fibroblast; [9]): 0
- Growth Rate (Fibroblast; [7]): 0
- Growth Rate (HEK-293T; [1]): 0
- Growth Rate (HEK-293T; [3]): 0
- Growth Rate (HEK-293T; [8]): 1
- Growth Rate (HEK-293T; [4]): 1
- Growth Rate (HEK-293T; [6]): 1
- Growth Rate (HEK-293T; [7]): 0
- Growth Rate (HEK-293T; [10]): 1

SMILES: Cc1cccc(-c2cnc3occ(-c4ccc(C(=O)O)c(C5CCCC5)c4)c3c2)c1
- Growth Rate (U2OS; [1]): 0
- Growth Rate (U2OS; [3]): 0
- Growth Rate (U2OS; [4]): 1
- Growth Rate (U2OS; [5]): 0
- Growth Rate (U2OS; [6]): 0
- Growth Rate (U2OS; [9]): 1
- Growth Rate (U2OS; [7]): 1
- Growth Rate (Fibroblast; [2]): 1
- Growth Rate (Fibroblast; [3]): 0
- Growth Rate (Fibroblast; [4]): 0
- Growth Rate (Fibroblast; [6]): 0
- Growth Rate (Fibroblast; [7]): 0
- Growth Rate (HEK-293T; [1]): 1
- Growth Rate (HEK-293T; [2]): 0
- Growth Rate (HEK-293T; [6]): 1
- Growth Rate (HEK-293T; [7]): 1

SMILES: Nc1nc(NCc2ccccc2)nc(-c2ccccc2CO)n1 [Ogerin]
- Growth Rate (U2OS; [2]): 0
- Growth Rate (U2OS; [8]): 1
- Growth Rate (U2OS; [4]): 1
- Growth Rate (U2OS; [6]): 1
- Growth Rate (U2OS; [7]): 1
- Growth Rate (Fibroblast; [1]): 1
- Growth Rate (Fibroblast; [3]): 0
- Growth Rate (Fibroblast; [4]): 0
- Growth Rate (Fibroblast; [6]): 0
- Growth Rate (Fibroblast; [7]): 0
- Growth Rate (HEK-293T; [1]): 1
- Growth Rate (HEK-293T; [2]): 0
- Growth Rate (HEK-293T; [3]): 0
- Growth Rate (HEK-293T; [8]): 1
- Growth Rate (HEK-293T; [4]): 1
- Growth Rate (HEK-293T; [6]): 1
- Growth Rate (HEK-293T; [7]): 0
- Growth Rate (HEK-293T; [10]): 1

SMILES: Cc1c(OCc2cccc(-c3ccc(C(=O)O)cc3)c2)cc2c(c1C)C(=O)C(C1CCCC1)C2 (stereo not given)
- Growth Rate (U2OS; [1]): 0
- Growth Rate (U2OS; [4]): 1
- Growth Rate (U2OS; [6]): 1
- Growth Rate (U2OS; [7]): 1
- Growth Rate (Fibroblast; [1]): 0
- Growth Rate (Fibroblast; [3]): 0
- Growth Rate (Fibroblast; [4]): 0
- Growth Rate (Fibroblast; [6]): 0
- Growth Rate (Fibroblast; [7]): 0
- Growth Rate (HEK-293T; [1]): 0
- Growth Rate (HEK-293T; [3]): 0
- Growth Rate (HEK-293T; [4]): 0
- Growth Rate (HEK-293T; [6]): 0
- Growth Rate (HEK-293T; [7]): 0
- Growth Rate (HEK-293T; [10]): 1

SMILES: CCC(=O)N1CCOc2c(cc(-c3ccc(OC)c(OC)c3)cc2OC[C@H]2CCCN(C)C2)C1
- Growth Rate (U2OS; [1]): 0
- Growth Rate (U2OS; [3]): 0
- Growth Rate (U2OS; [4]): 1
- Growth Rate (U2OS; [6]): 1
- Growth Rate (U2OS; [7]): 1
- Growth Rate (Fibroblast; [1]): 0
- Growth Rate (Fibroblast; [3]): 0
- Growth Rate (Fibroblast; [4]): 1
- Growth Rate (Fibroblast; [5]): 0
- Growth Rate (Fibroblast; [6]): 1
- Growth Rate (Fibroblast; [9]): 0
- Growth Rate (Fibroblast; [7]): 1
- Growth Rate (Fibroblast; [10]): 0
- Growth Rate (HEK-293T; [2]): 1
- Growth Rate (HEK-293T; [3]): 0
- Growth Rate (HEK-293T; [4]): 0
- Growth Rate (HEK-293T; [6]): 0
- Growth Rate (HEK-293T; [9]): 1
- Growth Rate (HEK-293T; [7]): 0

SMILES: CN(C)S(=O)(=O)c1ccc(NC(=S)N2CCC(C(O)(c3ccccc3)c3ccccc3)CC2)cc1
- Growth Rate (U2OS; [2]): 0
- Growth Rate (U2OS; [3]): 1
- Growth Rate (U2OS; [4]): 0
- Growth Rate (U2OS; [6]): 1
- Growth Rate (U2OS; [7]): 0
- Growth Rate (U2OS; [10]): 1
- Growth Rate (Fibroblast; [1]): 0
- Growth Rate (Fibroblast; [3]): 0
- Growth Rate (Fibroblast; [4]): 0
- Growth Rate (Fibroblast; [6]): 0
- Growth Rate (Fibroblast; [9]): 1
- Growth Rate (Fibroblast; [7]): 0
- Growth Rate (Fibroblast; [10]): 1
- Growth Rate (HEK-293T; [2]): 0
- Growth Rate (HEK-293T; [3]): 0
- Growth Rate (HEK-293T; [4]): 0
- Growth Rate (HEK-293T; [6]): 0
- Growth Rate (HEK-293T; [7]): 0

SMILES: CCCc1nc2c(C)cc(-c3nc4ccccc4n3C)cc2n1Cc1ccc(-c2ccccc2C(=O)O)cc1
- Growth Rate (U2OS; [1]): 0
- Growth Rate (U2OS; [8]): 1
- Growth Rate (U2OS; [4]): 1
- Growth Rate (U2OS; [6]): 1
- Growth Rate (U2OS; [7]): 1
- Growth Rate (U2OS; [10]): 0
- Growth Rate (Fibroblast; [1]): 0
- Growth Rate (Fibroblast; [3]): 1
- Growth Rate (Fibroblast; [4]): 0
- Growth Rate (Fibroblast; [5]): 1
- Growth Rate (Fibroblast; [6]): 1
- Growth Rate (Fibroblast; [7]): 0
- Growth Rate (HEK-293T; [1]): 0
- Growth Rate (HEK-293T; [3]): 0
- Growth Rate (HEK-293T; [4]): 0
- Growth Rate (HEK-293T; [6]): 0
- Growth Rate (HEK-293T; [7]): 0
